According to patent publication US20240352012A1, “PAN-CASPASE INHIBITORS” (GEORGE MASON UNIVERSITY, priority 2023, published 2024):

How the values were obtained:
Caspase 3 [1] = biological target: T1, Caspase 3 (Homo sapiens, UniProt P42574)
T1 sequence (P42574 29-175 limits assumed): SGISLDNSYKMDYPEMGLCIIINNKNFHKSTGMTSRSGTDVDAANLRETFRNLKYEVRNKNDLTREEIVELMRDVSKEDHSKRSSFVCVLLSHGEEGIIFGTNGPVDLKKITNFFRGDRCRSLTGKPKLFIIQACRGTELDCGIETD
T1 sequence (P42574 176-277 limits assumed): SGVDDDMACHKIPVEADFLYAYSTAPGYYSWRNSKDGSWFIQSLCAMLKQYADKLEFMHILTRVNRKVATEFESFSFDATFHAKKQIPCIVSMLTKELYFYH
Method: (§1) Caspase 3 screening assays were performed similar to the assays described by Okun et al. [61]. […] The direct fluorometric enzyme assay was performed in a 96 well plate which was read in a temperature-controlled plate reader equipped with a 400-nm excitation filter and 505-nm emission filter. The fluorescence was read every one minute for 60 minutes.
(§2) A volume of 1 μL of DMSO solution was added to 24 μL H2O to produce a final volume of 25 μL/well in a 96 well plate. A volume of 2.5 μL of the Active caspase 3 was added. 2) A positive inhibition control was prepared by adding 1 μL of the caspase 3 Inhibitor (Z-DEVD-FMK, provided in the kit) instead of the tested compounds. 3) The other positive inhibition control was prepared by adding 1 μL of the caspase 3/7 Inhibitor (Compound C2, purchased from ApexBio company A1925) instead of the tested compounds. 4) A negative inhibition control was prepared using pure DMSO without the inhibitor. A volume of 1 μL of pure DMSO to 24 μL H2O to a final volume of 25 μL/well. 5) Master Mix was prepared for each assay containing the follows: a. 22.5 μL 2× Reaction Buffer (containing 10 mM DTT). b. 2.5 μL of the 1 mM Ac-DEVD-AFC substrate (50 μM final concentration). 6) Master Mix was mixed well then 22.5 μL of the Master Mix was added quickly to each well to start the reaction. 7) Samples were read in Gemini EM fluorescence Microplate reader with a 400 nm excitation wavelength and 505 nm emission wavelength every 1 minute for duration of 1 hour at 37° C. 8) Data was exported in an Excel spread sheet format and processed to determine the % inhibition compared to the controls in each plate. The IC50 was calculated using Graphpad PRISM 7 software.
(§3) All designed compounds were screened at a fixed concentration of 10 PM.

Caspase 1 = biological target: T2, Caspase 1 (Homo sapiens, UniProt P29466); assay: Caspase 1 inhibitor screening and IC50 assay (direct fluorometric enzyme assay); format: biochemical; details: calculated by Graphpad PRISM 7; read-out: IC50 (nM) against Caspase 1
T2 construct: purchased Raybiotech Company 68FL-Casp1-S200
T2 sequence (P29466 120-297 limits assumed): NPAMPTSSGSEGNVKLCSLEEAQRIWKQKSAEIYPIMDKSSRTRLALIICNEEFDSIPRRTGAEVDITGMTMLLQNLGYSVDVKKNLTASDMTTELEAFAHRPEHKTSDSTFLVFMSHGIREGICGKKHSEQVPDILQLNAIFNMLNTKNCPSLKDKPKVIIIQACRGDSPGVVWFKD
T2 sequence (P29466 317-404 limits assumed): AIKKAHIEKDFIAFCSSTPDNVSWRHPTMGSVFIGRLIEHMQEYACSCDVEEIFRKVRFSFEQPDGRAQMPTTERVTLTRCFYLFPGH
Method: Caspase 3 screening assays were performed similar to the assays described by Okun et al. [61]. The caspase 3 inhibitor drug screening kits were purchases from Raybiotech Company (Caspase 3: Item number is 68SR-Casp3S100), (Caspase 7: Item number is 68SR-Casp7-S100), and (Caspase 1: Item number is 68FL-Casp1-S200). The direct fluorometric enzyme assay was performed in a 96 well plate which was read in a temperature-controlled plate reader equipped with a 400-nm excitation filter and 505-nm emission filter. The fluorescence was read every one minute for 60 minutes.

Caspase 3 [2] = biological target: T1, Caspase 3; assay: biochemical
Method: as §1, §2, §3

Caspase 7 = biological target: T3, Caspase 7 (Homo sapiens, UniProt P55210); assay: biochemical
T3 sequence (P55210 24-198 limits assumed): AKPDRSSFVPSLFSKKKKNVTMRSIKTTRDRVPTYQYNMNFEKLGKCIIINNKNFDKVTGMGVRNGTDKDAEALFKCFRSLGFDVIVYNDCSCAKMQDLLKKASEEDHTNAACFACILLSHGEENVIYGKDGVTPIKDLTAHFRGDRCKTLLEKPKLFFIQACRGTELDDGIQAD
T3 sequence (P55210 207-303 limits assumed): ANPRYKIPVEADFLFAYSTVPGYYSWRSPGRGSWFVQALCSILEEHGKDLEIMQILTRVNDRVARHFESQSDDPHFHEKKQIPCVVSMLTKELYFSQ

inhibition (Caspase 3 [1]) [%] | IC50 (Caspase 1) [nM] | IC50 (Caspase 3 [2]) [nM] | IC50 (Caspase 7) [nM] | SMILES
~30 |  |  |  | Cc1cc(N2C(=O)c3c(C)nc4ccc(F)cc4c3C2=O)c2ccccc2n1 [Compound F4, 8-fluoro-4-methyl-2-(2-methylquinolin-4-yl)-1H,2H,3H-pyrrolo[3,4-c]quinoline-1,3-dione]
~30 |  |  |  | Cc1cc(N2C(=O)c3c(C)nc4ccccc4c3C2=O)c2ccccc2n1 [Compound H4, 4-methyl-2-(2-methylquinolin-4-yl)-1H,2H,3H-pyrrolo[3,4-c]quinoline-1,3-dione]
~25 |  |  |  | Cc1nc2ccccc2c2c1C(=O)N(c1ccc(I)cc1)C2=O [Compound H11, 2-(4-iodophenyl)-4-methyl-1H,2H,3H-pyrrolo[3,4-c]quinoline-1,3-dione]
~25 |  |  |  | Cc1ccc(N2C(=O)c3c(C)nc4ccccc4c3C2=O)cc1 [Compound H13, 4-methyl-2-(4-methylphenyl)-1H,2H,3H-pyrrolo[3,4-c]quinoline-1,3-dione]
 | 178 | 742 | 35.2 | Cc1cc(N2C(=O)c3c(C)nc4ccc(S(=O)(=O)N5CCOCC5)cc4c3C2=O)c2ccccc2n1 [MO4, 4-methyl-2-(2-methylquinolin-4-yl)-8-(morpholine-4-sulfonyl)-1H,2H,3H-pyrrolo[3,4c]quinoline-1,3-dione]
 |  | 100 to 300 |  | Cc1nc2ccc(S(=O)(=O)N3CCOCC3)cc2c2c1C(=O)N(c1ccc(I)cc1)C2=O [MO11, 2-(4-iodophenyl)-4-methyl-8-(morpholine-4-sulfonyl)-1H,2H,3H-pyrrolo[3,4-c]quinoline1,3-dione]
 | 361 | 164 | 145 | Cc1ccc(N2C(=O)c3c(C)nc4ccc(S(=O)(=O)N5CCOCC5)cc4c3C2=O)cc1 [MO13, 4-methyl-2-(4-methylphenyl)-8-(morpholine-4-sulfonyl)-1H,2H,3H-pyrrolo[3,4-c]quinoline1,3-dione]
 | 261 | 785 | 408 | C#Cc1cccc(N2C(=O)c3c(C)nc4ccc(S(=O)(=O)N5CCCCC5)cc4c3C2=O)c1 [PE5, 2-(3-ethynylphenyl)-4-methyl-8-(piperidine-1-sulfonyl)-1H,2H,3H-pyrrolo[3,4-c]quinoline1,3-dione]
 |  | ~4000 |  | Cc1nc2ccc(S(=O)(=O)N3CCCC3)cc2c2c(=O)n(-c3ccccc3)[nH]c(=O)c12 [PY6B, 5-methyl-2-phenyl-9-(pyrrolidine-1-sulfonyl)-1H,2H,3H,4H-pyridazino[4,5-c]quinoline-1,4dione]
